Read-outs that look alike come from different tables or passages of the source.
Test system: primary rat mixed cortical cells
Experiment: In vitro myelination assay (MBP positive myelin strands, fold myelin pixels above background)
Assay type: cell-based
Settings: Rattus norvegicus; for fold induction at 1 µM: 1.0 μM compound; for fold induction at 10 µM: 10.0 μM compound
How it was run: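 P1 rat mixed cortical cultures (neurons, OPCs, oligodendrocytes, astrocytes, microglia) grown 14 days at 37 °C with compound, half-medium refreshed with compound on days 6 and 10. Fixed cells stained for MBP; MBP-positive myelin strand pixels per well quantified by automated imaging, reported as fold over no-compound baseline at 1.0 and 10.0 μM.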

[1] = relative to baseline of no added compound, read-out: Fold myelin pixels above background
[2] = read-out: Fold myelin pixels above background relative to baseline of no added compound

`Fc1cc(Nc2ncn(-c3ccnc(F)c3)n2)cc(N2CCN(C3COC3)CC2)c1` [Compound 783, N-[3-fluoro-5-[4-(oxetan-3-yl)piperazin-1-yl]phenyl]-1-(2-fluoro-4-pyridyl)-1,2,4-triazol-3-amine] was tested, and the fold induction at 1 µM [1] was no more than 1 and the fold induction at 10 µM [1] was 1 to 10.
In the case of `Fc1ccc(-n2cnc(Nc3cc(Cl)cc(N4CC(N5CCOCC5)C4)c3)n2)cc1F` [Compound 784, N-[3-chloro-5-(3-morpholinoazetidin-1-yl)phenyl]-1-(3,4-difluorophenyl)-1,2,4-triazol-3-amine], the fold induction at 1 µM [1] is reported as 10 to 100 and the fold induction at 10 µM [1] is reported as 10 to 100.
Work on `Clc1cc(Nc2ncn(-c3ccccn3)n2)cc(N2CC(N3CCOCC3)C2)c1` [Compound 785, N-[3-chloro-5-(3-morpholinoazetidin-1-yl)phenyl]-1-(2-pyridyl)-1,2,4-triazol-3-amine] yielded a fold induction at 1 µM [1] of 10 to 100 and a fold induction at 10 µM [1] of 100 to 1000.
In the case of `COCC1CCCN(c2cc(C)cc(Nc3ncn(-c4cc(F)cc(F)c4)n3)n2)C1` (stereo not drawn) [Compound 786, N-[1-(3,5-difluorophenyl)-1,2,4-triazol-3-yl]-6-[3-(methoxymethyl)-1-piperidyl]-4-methyl-pyridin-2-amine], the fold induction at 1 µM [1] is reported as 1 to 10 and the fold induction at 10 µM [1] is reported as no more than 1.
With `Cc1cc(Nc2ncn(-c3cc(F)cc(F)c3)n2)cc(N2CC(N3CC4CC3CO4)C2)c1` (stereo not drawn) [Compound 788, 1-(3,5-difluorophenyl)-N-[3-methyl-5-[3-(2-oxa-5-azabicyclo[2.2.1]heptan-5-yl)azetidin-1-yl]phenyl]-1,2,4-triazol-3-amine] the fold induction at 1 µM [2] was 10 to 100 and the fold induction at 10 µM [2] was 1 to 10.
Work on `CNC(=O)c1cc(Nc2ncn(-c3ccc(F)c(F)c3)n2)nc(N2CCN(C3COC3)CC2)c1` [Compound 789, 2-[[1-(3,4-difluorophenyl)-1,2,4-triazol-3-yl]amino]-N-methyl-6-[4-(oxetan-3-yl)piperazin-1-yl]pyridine-4-carboxamide] yielded a fold induction at 1 µM [2] of 1 to 10 and a fold induction at 10 µM [2] of no more than 1.
With `Cc1cc(Nc2ncn(-c3cc(F)cc(F)c3)n2)c(F)c(N2CC(N3CCOCC3)C2)c1` [Compound 790, 1-(3,5-difluorophenyl)-N-[2-fluoro-5-methyl-3-(3-morpholinoazetidin-1-yl)phenyl]-1,2,4-triazol-3-amine] the fold induction at 1 µM [2] was 10 to 100 and the fold induction at 10 µM [2] was 10 to 100.
Molecule `Cc1cc(Nc2ncn(-c3cc(F)cc(F)c3)n2)cc(N2CC(NCCO)C2)c1` [Compound 791, 2-[[1-[3-[[1-(3,5-difluorophenyl)-1,2,4-triazol-3-yl]amino]-5-methyl-phenyl]azetidin-3-yl]amino]ethanol] has a fold induction at 1 µM [2] of 10 to 100 and a fold induction at 10 µM [2] of no more than 1.
With `N#Cc1cc(Nc2ncn(-c3cccc(F)c3)n2)cc(N2CCN(C3COC3)CC2)c1` [Compound 793, 3-[[1-(3-fluorophenyl)-1,2,4-triazol-3-yl]amino]-5-[4-(oxetan-3-yl)piperazin-1-yl]benzonitrile] the fold induction at 1 µM [2] was 1 to 10 and the fold induction at 10 µM [2] was no more than 1.
For `Fc1cc(Nc2ncn(-c3cccc(C(F)F)c3)n2)cc(N2CCN(C3COC3)CC2)c1` [Compound 794, 1-[3-(difluoromethyl)phenyl]-N-[3-fluoro-5-[4-(oxetan-3-yl)piperazin-1-yl]phenyl]-1,2,4-triazol-3-amine], the fold induction at 1 µM [2] was 1 to 10 and the fold induction at 10 µM [2] was no more than 1.
Work on `COCC1CCN(c2cc(C(F)F)cc(Nc3ncn(-c4cccc(C(F)(F)F)c4)n3)n2)CC1` [Compound 795, 4-(difluoromethyl)-6-[4-(methoxymethyl)-1-piperidyl]-N-[1-[3-(trifluoromethyl)phenyl]-1,2,4-triazol-3-yl]pyridin-2-amine] yielded a fold induction at 1 µM [2] of 1 to 10 and a fold induction at 10 µM [2] of 1 to 10.
In the case of `Cc1cc(Nc2ncn(-c3cc(F)cc(F)c3)n2)cc(NC2CC(N3CCOCC3)C2)c1` (stereo not drawn) [Compound 797, N3-[1-(3,5-difluorophenyl)-1,2,4-triazol-3-yl]-5-methyl-N1-(3-morpholinocyclobutyl)benzene-1,3-diamine], the fold induction at 1 µM [2] is reported as 1 to 10 and the fold induction at 10 µM [2] is reported as no more than 1.
`Cc1cc(C#CC2CC2)cc(Nc2ncn(-c3cc(F)cc(F)c3)n2)c1` [Compound 798, N-[3-(2-cyclopropylethynyl)-5-methyl-phenyl]-1-(3,5-difluorophenyl)-1,2,4-triazol-3-amine] was tested, and the fold induction at 1 µM [2] was 1 to 10 and the fold induction at 10 µM [2] was 1 to 10.
With `Cc1cc(Nc2ncn(-c3ccc(F)c(F)c3)n2)cc(NC2CC(N3CCOCC3)C2)c1` (stereo not drawn) [Compound 799, N3-[1-(3,4-difluorophenyl)-1,2,4-triazol-3-yl]-5-methyl-N1-(3-morpholinocyclobutyl)benzene-1,3-diamine] the fold induction at 1 µM [2] was 10 to 100 and the fold induction at 10 µM [2] was no more than 1.
`Cc1cc(Nc2ncn(-c3cc(F)cc(F)c3)n2)nc(C2CCN(C3COC3)CC2)c1` [Compound 801, N-[1-(3,5-difluorophenyl)-1,2,4-triazol-3-yl]-4-methyl-6-[1-(oxetan-3-yl)-4-piperidyl]pyridin-2-amine] gave a fold induction at 1 µM [2] of 1 to 10 and a fold induction at 10 µM [2] of 1 to 10.
Molecule `CCc1cc(Nc2ncn(-c3ccc(F)cc3)n2)cc(N2CCN(C3(C)COC3)CC2)c1` [Compound 802, N-[3-ethyl-5-[4-(3-methyloxetan-3-yl)piperazin-1-yl]phenyl]-1-(4-fluorophenyl)-1,2,4-triazol-3-amine] has a fold induction at 1 µM [2] of 10 to 100 and a fold induction at 10 µM [2] of no more than 1.
Molecule `Fc1cc(Nc2ncn(-c3ccc(F)c(F)c3)n2)cc(N2CCN(C3COC3)CC2)c1` [Compound 803, 1-(3,4-difluorophenyl)-N-[3-fluoro-5-[4-(oxetan-3-yl)piperazin-1-yl]phenyl]-1,2,4-triazol-3-amine] has a fold induction at 1 µM [2] of 10 to 100 and a fold induction at 10 µM [2] of no more than 1.
Molecule `Fc1cc(F)cc(-n2cnc(Nc3cc(C(F)F)cc(N4CC(N5CCOCC5)C4)c3)n2)c1` [Compound 804, N-[3-(difluoromethyl)-5-(3-morpholinoazetidin-1-yl)phenyl]-1-(3,5-difluorophenyl)-1,2,4-triazol-3-amine] has a fold induction at 1 µM [2] of 10 to 100 and a fold induction at 10 µM [2] of no more than 1.
`CC(=O)N1CCC(Oc2cc(C)cc(Nc3ncn(-c4cc(F)cc(F)c4)n3)c2)CC1` [Compound 805, 1-[4-[3-[[1-(3,5-difluorophenyl)-1,2,4-triazol-3-yl]amino]-5-methyl-phenoxy]-1-piperidyl]ethanone] was tested, and the fold induction at 1 µM [2] was 10 to 100 and the fold induction at 10 µM [2] was 1 to 10.
Work on `Fc1ccc(-n2cnc(Nc3cc(C(F)F)cc(N4CCN(C5COC5)CC4)n3)n2)cc1` [Compound 806, 4-(difluoromethyl)-N-[1-(4-fluorophenyl)-1,2,4-triazol-3-yl]-6-[4-(oxetan-3-yl)piperazin-1-yl]pyridin-2-amine] yielded a fold induction at 1 µM [2] of 1 to 10 and a fold induction at 10 µM [2] of no more than 1.
In the case of `COCC1CCN(c2cc(C(F)(F)F)cc(Nc3ncn(-c4cccc(C(F)F)c4)n3)n2)CC1` [Compound 807, N-[1-[3-(difluoromethyl)phenyl]-1,2,4-triazol-3-yl]-6-[4-(methoxymethyl)-1-piperidyl]-4-(trifluoromethyl)pyridin-2-amine], the fold induction at 1 µM [2] is reported as 1 to 10 and the fold induction at 10 µM [2] is reported as 1 to 10.
`Cc1cc(Nc2ncn(-c3cc(F)cc(F)c3)n2)cc(N2CC(N3CCCOCC3)C2)c1` [Compound 808, 1-(3,5-difluorophenyl)-N-[3-methyl-5-[3-(1,4-oxazepan-4-yl)azetidin-1-yl]phenyl]-1,2,4-triazol-3-amine] showed a fold induction at 1 µM [2] of 10 to 100 and a fold induction at 10 µM [2] of no more than 1.
Molecule `Cc1cc(Nc2ncn(-c3cc(F)cc(F)c3)n2)cc(N2CCN(CCN(C)C)CC2)c1` [Compound 809, 1-(3,5-difluorophenyl)-N-[3-[4-[2-(dimethylamino)ethyl]piperazin-1-yl]-5-methyl-phenyl]-1,2,4-triazol-3-amine] has a fold induction at 1 µM [2] of 1 to 10 and a fold induction at 10 µM [2] of no more than 1.
`Cc1cc(Nc2ncn(-c3cc(F)cc(F)c3)n2)c(F)c(NC2CCOCC2)c1` [Compound 810, N3-[1-(3,5-difluorophenyl)-1,2,4-triazol-3-yl]-2-fluoro-5-methyl-N1-tetrahydropyran-4-yl-benzene-1,3-diamine] was tested, and the fold induction at 1 µM [2] was 1 to 10 and the fold induction at 10 µM [2] was 1 to 10.
`Cc1c(Nc2ncn(-c3ccccn3)n2)cc(N2CC(N3CCOCC3)C2)cc1OC(C)C` [Compound 811, N-[3-isopropoxy-2-methyl-5-(3-morpholinoazetidin-1-yl)phenyl]-1-(2-pyridyl)-1,2,4-triazol-3-amine] showed a fold induction at 1 µM [2] of 1 to 10 and a fold induction at 10 µM [2] of 10 to 100.
`Cc1cc(Nc2ncn(-c3cc(F)cc(F)c3)n2)cc(OCCN2CCOCC2)c1` [Compound 812, 1-(3,5-difluorophenyl)-N-[3-methyl-5-(2-morpholinoethoxy)phenyl]-1,2,4-triazol-3-amine] was tested, and the fold induction at 1 µM [2] was 10 to 100 and the fold induction at 10 µM [2] was 10 to 100.
With `CC(=O)N[C@H]1C[C@H](Oc2cc(C)cc(Nc3ncn(-c4cc(F)cc(F)c4)n3)c2)C1` [Compound 813, N-[3-[3-[[1-(3,5-difluorophenyl)-1,2,4-triazol-3-yl]amino]-5-methyl-phenoxy]cyclobutyl]acetamide] the fold induction at 1 µM [2] was 10 to 100 and the fold induction at 10 µM [2] was 1 to 10.
With `Cc1cc(Nc2ncn(-c3cc(F)cc(F)c3)n2)cc(N2CCC3(CCOC3)CC2)c1` [Compound 814, 1-(3,5-difluorophenyl)-N-[3-methyl-5-(2-oxa-8-azaspiro[4.5]decan-8-yl)phenyl]-1,2,4-triazol-3-amine] the fold induction at 1 µM [2] was 10 to 100 and the fold induction at 10 µM [2] was 1 to 10.
With `Cc1cc(Nc2ncn(-c3cc(F)cc(F)c3)n2)nc(N2CCCC(CO)C2)c1` (stereo not drawn) [Compound 815, [1-[6-[[1-(3,5-difluorophenyl)-1,2,4-triazol-3-yl]amino]-4-methyl-2-pyridyl]-3-piperidyl]methanol] the fold induction at 1 µM [2] was 1 to 10 and the fold induction at 10 µM [2] was 10 to 100.
In the case of `COCCNC1CN(c2cc(C)cc(Nc3ncn(-c4cc(F)cc(F)c4)n3)c2)C1` [Compound 816, 1-(3,5-difluorophenyl)-N-[3-[3-(2-methoxyethylamino)azetidin-1-yl]-5-methyl-phenyl]-1,2,4-triazol-3-amine], the fold induction at 1 µM [2] is reported as 1 to 10 and the fold induction at 10 µM [2] is reported as 1 to 10.

Source: patent publication US10766869B2, “Triazoles for the treatment of demyelinating dieases” (Vertex Pharmaceuticals Incorporated, priority 2015, dated 2020)
